# From US9457044B2, “Methods and compositions for wound healing” (CoDa Therapeutics, Inc., priority 2006, dated 2016)
# Experiments:
# Cx43 protein = conditions: within two hours; Becker 1999, McGonnell 2001, Qiu 2003; cited from earlier work
# blood vessels = assay: Angiogenesis at wound sites (von Willebrand factor, CD31, isolectinB staining); format: in vivo, mice
# Protocol: (§1) Male, 8 week old, ICR mice were used in the following experiments. All the mice were kept under specific pathogen-free conditions in an environmentally controlled clean room at University College London and all the experiments were carried out under UK Home Office regulations. Mice were anaesthetized by halothane inhalation. Four full-thickness excisional wounds of 6 mm diameter were made on the shaved back on either side of the dorsal midline with a 6 mm biopsy punch (Kai Industries). To each pair of wounds a single topical application of 50 μl of 1 μM Cx43 as ODN (SEQ. ID No. 2) (Sigma-Genosys) in 30% Pluronic F-127 gel (Sigma-Aldrich), chilled on ice, was made to one wound, and an identical application of 1 μM sense control sODNs was made to the other. […] R. and Becker, D. L. (2003). Targeting connexin 43 expression accelerates the rate of wound repair. Curr Biol 13, 1697-703). Each wound region was digitally photographed at the indicated time intervals, and the areas of the wounds were calculated. All wound areas were expressed as percentages of the initial wound areas. In some series of experiments, wounds and their surrounding area, including the scab and epithelial margins, were harvested with an 8 mm biopsy punch (Kai Industries) at the indicated time intervals after mice were killed with an overdose of chloroform. A minimum of eight mice were used for each time point examined.
# Wound tissues were fixed in 4% formaldehyde buffered with PBS, and embedded in paraffin. Sections ([…] thick) were subjected to hematoxylin and eosin staining or immunostaining. Measurement of granulation tissue area in H&E was performed using Improvision Openlab™ 4.0.2 software (Improvision). For immunohistochemistry, deparaffinized sections were treated with endogenous peroxidase blocking reagent (Dako Cytomation A/S) and proteinase K (Dako Cytomation A/S) for 20 minutes and 6 minutes at room temperature, respectively. They were then incubated with rabbit antimyeloperoxidase (MPO) polyclonal antibody (NeoMarkers) diluted 1:200, rat anti-mouse F4/80 monoclonal antibody (mAb) (Abcom Limited) diluted 1:400 or rat antimouse CD31 (platelet endothelial cell adhesion molecule 1, PECAM-1) mAb (PharMingen) or rabbit anti-mouse TGF-β1 polyclonal antibody (Santa Cruz Biotechnology, Inc) both diluted 1:200 overnight at 4° C. after blocking with 15% skimmed milk for 1 hour at room temperature. In addition, some sections were reacted with phalloidin-tetramethylrhodamine B isothiocyanate (Sigma-Aldrich) diluted 1:500 for 1 hour at room temperature. The antibodies were appropriately diluted in Antibody Diluent with Background Reducing Components (Dako Cytomation A/S). The sections reacted with anti-MPO antibody and anti TGF-β1 antibody were stained with EnVision+™ (Dako Cytomation A/S) to enhance the signal, according to the manufacturer's instructions. The sections that had been reacted with anti-F4/80 and anti-CD31 antibodies were incubated with biotinylated rabbit anti-rat immunoglobulin (Dako Cytomation A/S) diluted 1:200 for 1 hour at 37° C. The signal was then enhanced using the Catalyzed Signal Amplification System® (Dako Cytomation A/S) according to the manufacturer's instructions. Thereafter, counterstaining was performed with methyl green (Dako Cytomation A/S) followed by MPO, TGF-β1, F4/80, and CD31 staining or 4′,6-diamidino-2-phenylindole (DAPI) followed by phalloidin staining. […]
# BrdU-positive cells = assay: BrdU labeling of proliferating cells at wound sites; format: in vivo, mice
# Protocol: as §1
# In another experiment, wounded mice were injected intraperitoneally with 1 ml of BrdU (Sigma) in PBS solution (1 mg/ml) 2 hours before harvesting on days 1, 2, and 7. Wound tissues were fixed in 4% formaldehyde buffered with PBS, and embedded in paraffin. Deparaffinized sections (6 μm thick) were treated with a HistoMouse™-Plus Kit (ZYMED Laboratories, Inc) to reduce background signals according to manufacturer's instructions. […]
# A treatment-blinded observer counted MPO-positive neutrophils and F4/80-positive macrophages in the wound bed (defined as the area surrounded by unwounded skin, fascia, regenerated epidermis, and eschar) in 3 random high-power fields of 0.332 mm^2. BrdU-positive cells in the wound margin and the nascent epidermis regions of each immunohistochemically stained section were counted as described previously and expressed per […] of epidermis (Mori, R., Kondo, T., Nishie, T., Ohshima, T. and Asano, M. (2004). Impairment of skin wound healing in beta-1,4-galactosyltransferase-deficient mice with reduced leukocyte recruitment. Am J Pathol 164, 1303-14). Number of fibroblast like cells (phalloidin-positive cells with spindle-shape body) at the wound margin were counted in high-power fields also (each field was 0.332 mm^2). […] Images were made binary at a standard threshold and positive pixels were counted using Image J (NIH Image).
# IGF-7 = assay: Growth factor/cytokine antibody array of chimera: IGF-7; format: cell-based, human; conditions: after two weeks in culture
# Protocol: Cell denuded pig stroma chimeras were cultured for two weeks and then assessed using a growth factor/cytokine antibody array (measures protein levels of 120 different growth factors/cytokines.
# After two weeks in culture the chimeras were cut in half: one half for histological analysis, and the other for growth factor and cytokine array analysis. For growth factor and cytokine analysis the central stromal region (with fully recovered human cell epithelium) and partially repopulated stroma (human keratocytes) was removed and homogenised separately from the human limbal rim which contains stem cell populations. The homogenates were run on a growth factor/cytokine array (FIG. 15) and analysis of growth factor levels performed using densitometry analysis of the array membranes.
sequence,measurement,setting,value
"GTAATTGCGGCAGGAGGAATTGTTTCTGTC (antisense GTAATTGCGGCAGGAGGAATTGTTTCTGTC; in Pluronic F-127 gel, further chemistry not given here) [Cx43 asODN]",knockdown of Cx43 protein at the site of delivery,Cx43 protein,significant knockdown
same,blood vessel staining in granulation tissue,"blood vessels; 5 days, none in control wounds",staining was seen in the edges of the granulation tissue of all
same,"quantified blood vessel staining, treated versus controls","blood vessels; 7 days P=0.0019, 10 days P=0.015",significantly more staining in controls
same,"size of blood vessels and extent of staining, treated versus control",blood vessels; 14 days,very similar
same,wounds with fine blood vessels throughout the entire granulation tissue,blood vessels; day 7,five out of six
same,enhancement of the rate of wound maturation,"blood vessels; mouse, in vivo",2 to 3 days
same,"keratinocyte proliferation in the epidermal wound margin, control versus treated",BrdU-positive cells; FIG. 2E,little difference
same,BrdU-positive cells in the dermal wound margin,BrdU-positive cells; FIG. 2G,slightly more cells
same,BrdU-positive cells in the nascent epidermis,BrdU-positive cells; after both 2 days and 7 days,significantly increased numbers
same,BrdU-positive cells in the granulation tissue,BrdU-positive cells; days 1 and 2,significantly more
same,level of IGF-7 in chimeric stroma compared with untreated controls,IGF-7,very high levels
